In ChEMBL document CHEMBL1201862, “PubChem BioAssay data set” (2004):
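Compound exposure: 48 hours, 5 concentrations, 96-well plates. At the GI50, growth is halved.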 Calls of active or inactive are those of the source. Rule as the data show it: active = GI50 up to about 1.1 µM and inactive = higher.

Experiments:
Assay in all cases: NCI-60 cell line screen, 48 h
[1] = test system: OVCAR-8
[2] = test system: MDA-MB-435
[3] = test system: SK-MEL-5
[4] = test system: NCI-H226
[5] = test system: ACHN
[6] = test system: MOLT-4
[7] = test system: DU-145
[8] = test system: CCRF-CEM
[9] = test system: HOP-92
[10] = test system: MCF7
[11] = test system: OVCAR-5
[12] = test system: A549
[13] = test system: LOX IMVI
[14] = test system: KM12
[15] = test system: IGROV-1
[16] = test system: U-251
[17] = test system: NCI-H460
[18] = test system: Hs-578T
[19] = test system: COLO 205
[20] = test system: OVCAR-3

Measured: GI50

COC1=CC23CCCN2CCc2cc4c(cc2C3C1O)OCO4 (configuration not stated)
inactive: [1] > 100 µM | [2] > 100 µM | [3] 20 µM | [4] > 100 µM | [5] 22.3 µM | [6] 66.7 µM | [7] 43 µM | [8] 41.2 µM | [9] > 100 µM | [10] 48.5 µM | [11] > 100 µM | [12] 36.4 µM | [13] 37.1 µM | [14] 47 µM | [15] 28.8 µM | [16] > 100 µM | [17] 36 µM | [18] 82 µM | [19] 24.5 µM

C#C[C@@]1(O)CCCC2=CC3(CC[C@]21C)SCCS3
inactive: [1] > 100 µM | [2] > 100 µM | [3] > 100 µM | [4] > 100 µM | [5] > 100 µM | [6] > 100 µM | [7] > 100 µM | [9] > 100 µM | [10] > 100 µM | [11] > 100 µM | [12] > 100 µM | [13] > 100 µM | [14] > 100 µM | [15] > 100 µM | [16] > 100 µM | [17] > 100 µM | [18] > 100 µM | [20] > 100 µM | [19] > 100 µM

CC(CCCC1SCC2NC(=O)NC21)C(=O)O (configuration not stated)
inactive: [1] > 100 µM | [2] > 100 µM | [3] > 100 µM | [4] > 100 µM | [5] > 100 µM | [6] > 100 µM | [7] > 100 µM | [9] > 100 µM | [10] > 100 µM | [11] > 100 µM | [12] > 100 µM | [13] > 100 µM | [14] > 100 µM | [15] > 100 µM | [16] > 100 µM | [17] > 100 µM | [18] > 100 µM | [20] > 100 µM | [19] > 100 µM

C[C@]12CCC(=O)C=C1CC[C@@H]1C2CC[C@]2(C)c3nn(-c4ccc(F)cc4)nc3CC12 (some centres not stated)
inactive: [1] > 100 µM | [2] > 100 µM | [3] > 100 µM | [4] > 100 µM | [5] > 100 µM | [6] > 100 µM | [7] > 100 µM | [8] > 100 µM | [9] 61.1 µM | [10] > 100 µM | [11] > 100 µM | [12] > 100 µM | [14] > 100 µM | [15] > 100 µM | [16] 53.2 µM | [17] > 100 µM | [18] 64.6 µM | [20] > 100 µM | [19] > 100 µM

N#Cc1c(-c2ccc(Cl)cc2Cl)nc2[nH]nc(S)n2c1=O
inactive: [1] > 100 µM | [2] > 100 µM | [3] > 100 µM | [4] > 100 µM | [5] > 100 µM | [6] > 100 µM | [7] > 100 µM | [8] > 100 µM | [9] > 100 µM | [10] > 100 µM | [11] > 100 µM | [12] > 100 µM | [13] > 100 µM | [14] > 100 µM | [15] > 100 µM | [16] > 100 µM | [17] > 100 µM | [18] > 100 µM | [19] > 100 µM

Cc1cc2c(c(C(=O)NCC(=O)O)c1)Oc1c(cc(C)cc1C(=O)NCC(=O)O)S2
inactive: [1] > 100 µM | [2] > 100 µM | [4] > 100 µM | [5] > 100 µM | [6] > 100 µM | [7] > 100 µM | [8] > 100 µM | [9] > 100 µM | [10] > 100 µM | [11] > 100 µM | [12] > 100 µM | [13] > 100 µM | [14] > 100 µM | [15] > 100 µM | [16] > 100 µM | [18] > 100 µM | [20] > 100 µM | [19] > 100 µM

Cn1c(-c2ccc(/N=N/Nc3ccc(-c4n[nH]c(=S)n4C)cc3)cc2)n[nH]c1=S
inactive: [1] 4.6 µM | [2] > 100 µM | [3] 3.01 µM | [4] 5.36 µM | [5] 1.99 µM | [6] 3.08 µM | [7] 12.8 µM | [8] 3.98 µM | [9] 2.91 µM | [10] 12.1 µM | [11] > 100 µM | [12] > 100 µM | [13] 16.4 µM | [15] 10.2 µM | [16] 13.2 µM | [18] 32.1 µM | [20] 33.3 µM | [19] 56 µM

N#Cc1nc(CN2C(=O)c3ccccc3C2=O)oc1N
inactive: [1] > 100 µM | [2] > 100 µM | [3] > 100 µM | [4] > 100 µM | [5] > 100 µM | [6] > 100 µM | [7] > 100 µM | [8] > 100 µM | [9] > 100 µM | [10] > 100 µM | [11] > 100 µM | [12] > 100 µM | [14] > 100 µM | [15] > 100 µM | [16] > 100 µM | [17] > 100 µM | [18] > 100 µM | [20] > 100 µM | [19] > 100 µM

NS(=O)(=O)c1nnc(NS(=O)(=O)c2ccccc2C(=O)O)s1
inactive: [1] > 100 µM | [2] > 100 µM | [3] > 100 µM | [4] > 100 µM | [5] > 100 µM | [6] 76.7 µM | [7] > 100 µM | [9] > 100 µM | [10] > 100 µM | [11] > 100 µM | [12] > 100 µM | [13] > 100 µM | [14] > 100 µM | [16] > 100 µM | [17] > 100 µM | [18] > 100 µM | [20] > 100 µM | [19] > 100 µM

N=C(N)NCCCC(NC(=O)c1cccc2c(=O)c3ccccc3[nH]c12)C(=O)O (configuration not stated)
inactive: [1] > 100 µM | [2] > 100 µM | [3] > 100 µM | [4] > 100 µM | [5] > 100 µM | [6] > 100 µM | [7] > 100 µM | [8] > 100 µM | [9] 58.9 µM | [10] > 100 µM | [11] > 100 µM | [12] > 100 µM | [13] > 100 µM | [14] > 100 µM | [15] > 100 µM | [16] > 100 µM | [18] > 100 µM | [20] > 100 µM | [19] > 100 µM
